This note sets out measurements from patent US20130171217A1, “ENZYMATIC PERACID GENERATION FOR USE IN SKIN CARE PRODUCTS” (E I DU PONT DE NEMOURS AND COMPANY, priority 2010, published 2013).

Data set [1] can be described thus: Wool removal from sheep pelt strips by PAA solutions. Particulars: 15 wt % urea, pH 8. As to the method: To evaluate the efficacy of PAA solution on removing the wool from a sheep pelt sample, the following experiment was carried out. Pelt strips (0.5 cm×3 cm) were cut and the wool fibers were trimmed to a length of 0.2 cm. Each solution (50 μL) was applied on separated pelt strip (half of the length treated and half of the length untreated). The pelt strip samples were allowed to stand for 10 min at room temperature ([…]). Excess liquid was removed by blotting and the samples were put inside a plastic tube for 30 min for further treatment and then washed with 50 μL of a 2% sodium lauryl ether sulfate (SLES) solution, rinsed with tap water (excess liquid was removed by blotting), and then dried under N2. The treatment was repeated until the wool fibers in treated area were all removed. Three different solutions were tested using this protocol, a) 0.6 wt % PAA, 15 wt % urea, with 0.5 wt % SLES in a pH 8, 50 mM phosphate buffer; b) 0.6 wt % PAA and 15 wt % urea in a pH 8, 50 mM phosphate buffer; c) 0.2 wt % PAA, 15 wt % urea, 0.5 wt % SLES in a pH 8, 50 mM phosphate buffer. At the 19th, 23rd, 24th application, respectively, the wool fibers on the samples treated with solution (a), (b) and (c) were completely removed. The addition of 0.5 wt % SLES seems to accelerate the wool removal process.

A short description of data set [2]: Single fiber tensile strength test of hair after chemical treatment (NAIR, PAA, bleach creams, reductive solution, triacetin/H2O2). The text has this: Since the quality and diameter of the hair samples are variables, hair sample pre-selection is used to achieve reasonable standard deviation in the tensile strength test. […] To prevent contamination, gloves were used while handing hair fiber samples.
Plastic transfer pipette tubes were cut to 2^7/8 inches (approximately 7.3 cm) by cutting off the bulb end. A hair bundle with 7 to 20 hair strands was carefully inserted into the tube keeping the hair fibers together by taping one end together and attached to the outside top of the wider end of the transfer pipette. This also helped to keep the strands in place once in the tube.
Solution/cream (200 μL) was added to a 2.0-mL microfuge tube. The hair sample was placed into tube by inserting the smaller end of transfer pipette inside tube with hair protruding out of the tip such that the hair strands formed a U shape and the free end of the strands hung loosely outside of the microfuge tube.
After certain application, hair samples were dried and equilibrated in the temperature and humidity control room for at least 12 hr, preferably 24 hr, before tensile strength test.
Hair samples were cut into pieces 4-inches in length. The denier number (liner mass density) of each hair fiber was measured by Textechno Vibromat Instrument (Textechno Herbert Stein GmbH & Co. KG; Germany). The hair fibers were tested according to ASTM D 3822-01 (“Tensile Properties of Single Textile Fibers”; ASTM International, West Conshohocken, Pa., 2001), on an Instron testing system (Instron Model 1122 Tester; Instron, Mass.) at about 70° F. (approximately 21° C.) and 65% relative humidity. The treated area of the hair sample was placed in the middle of the gauge and both ends were gripped on the test heads. Both fiber ends were attached on a piece of tape, respectively, for easy handling and gripping on the test heads. The test used 2-inch (5.1 cm) gauge length, […], and 1.2 inch/min (3 cm/min) pulling rate. The force-strain curve of the fiber was recorded during the test. The tenacity at maximum (gf/den) was calculated by dividing maximum force (gf) by denier number (den). Note that (gf/den)/11.33=Newtons/tex (N/tex).
Tenacity at maximum (tensile strength) of each hair sample was used to compare the integrity of the hair sample. A lower value of the tenacity at maximum is indicative of an improved weakening efficacy. A commercial depilatory cream, NAIR® (an alkali/potassium thioglycolate-based hair removal product from Church and Dwight Co., Inc., Princeton, N.J.), was used to set a target level for hair weakening. Based on the NAIR® product instruction, the recommended treatment time is 3 min to 10 min. Therefore, the tenacity at maximum of a hair sample treated with NAIR® between 3 min to 10 min was used to determine the target level. During hair treatment, about 200 μL of NAIR® cream was added to a 2-mL microfuge tube and hair samples were soaked in the cream for 3, 5 and 10 min. Hair samples were then rinsed with tape water to remove all the cream and then were dried under a stream of N2. […] Therefore, the desired level of hair weakening efficacy was targeted in the range from 0.8 gf/den to 1.3 gf/den under similar testing conditions.
Peracetic acid was added in 50 mM phosphate buffer to prepare solutions with different PAA concentrations at pH 6 and pH 8. A PAA solution (200 μL) was added to a 2-mL microfuge tube and hair samples were inserted for 2 hours. Hair samples were then rinsed with deionized water and dried under N2.
[…] […] The treatment was repeated for 7 times or 15 times, i.e., 4 hours and 8 hours of total exposure time, respectively.
The same multiple treatment as in Example 3 was applied with two commercially available hydrogen peroxide-based bleaching creams (SALLY HANSEN® bleach cream for face and SALLY HANSEN® extra strength bleach cream for face & body; Del Laboratories, Inc., Uniondale, N.Y.) and 6 wt % hydrogen peroxide (H2O2) in a similar pH 8, 20% urea, phosphate solution. […]

A short description of data set [3]: Perhydrolase activity of targeted hydrolases, ABTS assay. Type of data set: biochemical. Particulars: triacetin at pH 7.5. As to the method:
The ABTS assay was performed as follows: hair samples treated as described above were transferred to new 2-mL microcentrifuge tubes (Eppendorf Protein LoBind; Eppendorf North America, Hauppauge, N.Y.) To each tube was added 480 μL of PAH buffer ([…]), 14 μL of 39% hydrogen peroxide (Sigma 3410), and 6 μL triacetin (Sigma-Aldrich W200700). The perhydrolase reaction was allowed to proceed for 10 minutes at room temperature (˜22-25° C.). The reaction was stopped by diluting aliquots 10×, 100× and 1000× with 10 mM phosphoric acid. For detection 50 μL of 1 M acetic acid, 50 μL of 40 mg/mL potassium iodide, and 50 μL of 4 mM ABTS (2,2′-azino-bis(3-ethylbenzthiazoline-6-sulphonic acid; Sigma, St Louis, Mo.) were added to 50 μL of the above dilutions. Color was allowed to develop for 10 minutes and read in a spectrophotometer at 405 nm. Values from no-enzyme controls were subtracted to yield values attributable only to enzyme activity. A standard curve of OD 405 nm vs PAA concentration in ppm yielded a conversion factor of 8.75, such that an OD 405 nm of 1.0 corresponded to approximately 8.75 ppm PAA. This value was then multiplied by the appropriate dilution to arrive at the PAA concentration in the perhydrolase reaction.
The perhydrolase activity of the enzymes targeted to hair with a variety of targeting domains produced as described in Example 32 was measured with the ABTS assay.

As to `CC(=O)OO` [PAA, peracetic acid], the “application at which the wool fibers were completely removed” value in data set [1] (solution (a): 0.6 wt % PAA, 0.5 wt % SLES) was found to be 19 application; in data set [1] (solution (b): 0.6 wt % PAA) it was 23 application; in data set [1] (solution (c): 0.2 wt % PAA, 0.5 wt % SLES), 24 application. The “Ten. @ Max” value in data set [2] ([PAA] 0.01 wt % then reductive solution (5 wt % potassium thioglycolate, pH 7.5), 20 min × 16, urea 10 wt %) came out at 1.2 gf/den; in data set [2] ([PAA] 0.01 wt %, 20 min × 16, urea 10 wt %, pH 8), 1.7 gf/den; in data set [2] ([PAA] 0.02 wt % then reductive solution, 20 min × 16, urea 10 wt %), 1.6 gf/den; in data set [2] ([PAA] 0.02 wt %, 20 min × 16, urea 10 wt %, pH 8), 1.7 gf/den; in data set [2] ([PAA] 0.02 wt %, soaking 2 hr, pH 6), 1.7 gf/den; in data set [2] ([PAA] 0.02 wt %, soaking 2 hr, urea 0 wt %) it was 1.6 gf/den. Further, the “Ten. @ Max” value turned out to be 1.7 gf/den in data set [2] ([PAA] 0.02 wt %, soaking 4 hr, urea 20 wt %); 0.8 gf/den in data set [2] ([PAA] 0.05 wt % then reductive solution, 20 min × 16, urea 10 wt %); 1.5 gf/den in data set [2] ([PAA] 0.05 wt %, 20 min × 16, urea 10 wt %, pH 8); 0.9 gf/den in data set [2] ([PAA] 0.10 wt % then reductive solution, 20 min × 8, urea 10 wt %); 1.1 gf/den in data set [2] ([PAA] 0.10 wt %, 20 min × 16, urea 10 wt %, pH 8); 0.7 gf/den in data set [2] ([PAA] 0.20 wt % then reductive solution, 20 min × 8, urea 10 wt %). Besides, the “Ten. @ Max” value turned out to be 0.7 gf/den in data set [2] ([PAA] 0.20 wt %, 20 min × 16, urea 10 wt %, pH 8); 1.3 gf/den in data set [2] ([PAA] 0.20 wt %, 30 min × 8, urea 20 wt %, pH 8); 0.6 gf/den in data set [2] ([PAA] 0.20 wt %, 30 min × 16, urea 20 wt %, pH 8); 1.5 gf/den in data set [2] ([PAA] 0.20 wt %, soaking 2 hr, pH 6); 1.6 gf/den in data set [2] ([PAA] 0.20 wt %, soaking 2 hr, pH 8); 1.6 gf/den in data set [2] ([PAA] 0.20 wt %, soaking 2 hr, urea 20 wt %). Besides, the “Ten. @ Max” value in data set [2] ([PAA] 0.20 wt %, soaking 4 hr, urea 20 wt %) is 1.5 gf/den; in data set [2] ([PAA] 0.60 wt %, 30 min × 8, urea 20 wt %, pH 8), 0.4 gf/den; in data set [2] ([PAA] 0.60 wt %, soaking 2 hr, pH 6) it was 1.3 gf/den; in data set [2] ([PAA] 0.60 wt %, soaking 2 hr, pH 8) it was 1.3 gf/den; in data set [2] ([PAA] 0.60 wt %, soaking 2 hr, urea 0 wt %), 1.3 gf/den; in data set [2] ([PAA] 0.60 wt %, soaking 2 hr, urea 20 wt %), 1.4 gf/den. For the same molecule, the “Ten. @ Max” value is given as 1.2 gf/den in data set [2] ([PAA] 0.60 wt %, soaking 4 hr, urea 0 wt %); 0.8 gf/den in data set [2] ([PAA] 0.60 wt %, soaking 4 hr, urea 20 wt %); 0.9 gf/den in data set [2] ([PAA] 2.00 wt %, soaking 2 hr, pH 6); 0.8 gf/den in data set [2] ([PAA] 2.00 wt %, soaking 2 hr, pH 8). In addition, the “Ten. @ Max (hair integrity)” value in data set [2] ([PAA] 0.60 wt %, 30 min × 16, urea 20 wt %, pH 8) is “NA: Not applicable as all hair strains in sample 6 lost their integrity before the 16th application and could not be analyzed”. For the same molecule, the “effective PAA concentration” value in data set [2] (longer soaking time and 20% urea) is “about 0.6 wt %”. Further, in data set [2] (multiple treatments up to 16 times, 20 wt % urea), the “effective PAA concentration to achieve target hair weakening level” value is 0.2 wt %. The “PAA concentration needed to achieve the targeted hair weakening level” value in data set [2] (single application, 2 hours, pH 6 and pH 8) was “greater than 0.6 wt %”.

B1: SEQ ID NO: 317: acetyl xylan esterase from Bacillus pumilus fused at its C-terminus to hair binding domain HC263 via a flexible linker (protein)
chain: MQLFDLSLEELKKYKPKKTARPDFSDFWKKSLEELRQVEAEPTLESYDYPVKGVKVYRLTYQSFGHSKIEGFYAVPDQTGPHPALVRFHGYNASYDGGIHDIVNWALHGYATFGMLVRGQGGSEDTSVTPGGHALGWMTKGILSKDTYYYRGVYLDAVRALEVIQSFPEVDEHRIGVIGGSQGGALAIAAAALSDIPKVVVADYPYLSNFERAVDVALEQPYLEINSYFRRNSDPKVEEKAFETLSYFDLINLAGWVKQPTLMAIGLIDKITPPSTVFAAYNHLETDKDLKVYRYFGHEFIPAFQTEKLSFLQKHLLLSTGPGSGGAGSPGSAGGPGSPSAQSQLPDKHSGLHERAPQRYGPEPEPEPEPIPEPPKEAPVVIEKPKPKPKPKPKPPAHDHKNQKETHQRHAAGSGGGGSPHHHHHH
The molecule B1 showed a Specific perhydrolase activity in data set [3] of 40 µmol/mg/min.
